These are literature values, as cited in US20260048008A1, “ORGANOGELS FOR SUSTAINED DRUG DELIVERY, METHODS OF PREPARATION AND USE THEREOF” (OCULAR THERAPEUTIX, INC., priority 2022, published 2026).

For the compound `CC(C)OC(=O)CCC/C=C\C[C@@H]1[C@@H](/C=C/[C@@H](O)COc2cccc(C(F)(F)F)c2)[C@H](O)C[C@@H]1O` [Travoprost], the solubility in water entry is on record as “practically insoluble in water”.
